Laboratory results: ChEMBL document CHEMBL1201862, “PubChem BioAssay data set” (2004)
The source made the active and inactive calls.

How the values were obtained:
[1] = molecular target: T1, Sentrin-specific protease 8 (Homo sapiens, UniProt Q96LD8); assay: inhibition of human SENP8 cleavage activity – biochemical, luminescence, SAR follow-up (AID 504501); assay type: functional
T1 sequence (Q96LD8 whole entry): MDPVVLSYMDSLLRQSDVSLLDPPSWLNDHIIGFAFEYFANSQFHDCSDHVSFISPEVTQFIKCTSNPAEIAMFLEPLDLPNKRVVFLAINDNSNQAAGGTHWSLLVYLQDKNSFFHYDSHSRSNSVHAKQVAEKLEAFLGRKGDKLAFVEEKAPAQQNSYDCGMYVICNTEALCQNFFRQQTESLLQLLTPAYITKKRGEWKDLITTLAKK

Caspase-3 = molecular target: T2, Caspase-3 (Homo sapiens, UniProt P42574); assay: SAR Analysis of small molecule inhibitors of Sentrin-specific proteases (SENPs) using a Caspase-3 Selectivity assay. [Related pubchem assays (depositor defined):AID2540, AID2599, AID434973, AID489001]; assay type: functional
T2 sequence (P42574 whole entry): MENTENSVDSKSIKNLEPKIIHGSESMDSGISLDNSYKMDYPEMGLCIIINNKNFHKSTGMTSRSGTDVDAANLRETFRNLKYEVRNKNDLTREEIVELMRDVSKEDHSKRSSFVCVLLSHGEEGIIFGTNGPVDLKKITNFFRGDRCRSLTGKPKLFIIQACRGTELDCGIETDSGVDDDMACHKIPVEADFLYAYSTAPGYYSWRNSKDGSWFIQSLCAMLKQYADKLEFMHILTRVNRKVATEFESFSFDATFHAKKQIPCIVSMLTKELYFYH

[2] = molecular target: T3, Sentrin-specific protease 6 (Homo sapiens, UniProt Q9GZR1); assay: SAR Analysis of small molecule inhibitors of Sentrin-specific protease 6 (SENP6) using a Luminescent assay. [Related pubchem assays (depositor defined):AID2582, AID2599]; assay type: functional
T3 sequence (Q9GZR1 whole entry): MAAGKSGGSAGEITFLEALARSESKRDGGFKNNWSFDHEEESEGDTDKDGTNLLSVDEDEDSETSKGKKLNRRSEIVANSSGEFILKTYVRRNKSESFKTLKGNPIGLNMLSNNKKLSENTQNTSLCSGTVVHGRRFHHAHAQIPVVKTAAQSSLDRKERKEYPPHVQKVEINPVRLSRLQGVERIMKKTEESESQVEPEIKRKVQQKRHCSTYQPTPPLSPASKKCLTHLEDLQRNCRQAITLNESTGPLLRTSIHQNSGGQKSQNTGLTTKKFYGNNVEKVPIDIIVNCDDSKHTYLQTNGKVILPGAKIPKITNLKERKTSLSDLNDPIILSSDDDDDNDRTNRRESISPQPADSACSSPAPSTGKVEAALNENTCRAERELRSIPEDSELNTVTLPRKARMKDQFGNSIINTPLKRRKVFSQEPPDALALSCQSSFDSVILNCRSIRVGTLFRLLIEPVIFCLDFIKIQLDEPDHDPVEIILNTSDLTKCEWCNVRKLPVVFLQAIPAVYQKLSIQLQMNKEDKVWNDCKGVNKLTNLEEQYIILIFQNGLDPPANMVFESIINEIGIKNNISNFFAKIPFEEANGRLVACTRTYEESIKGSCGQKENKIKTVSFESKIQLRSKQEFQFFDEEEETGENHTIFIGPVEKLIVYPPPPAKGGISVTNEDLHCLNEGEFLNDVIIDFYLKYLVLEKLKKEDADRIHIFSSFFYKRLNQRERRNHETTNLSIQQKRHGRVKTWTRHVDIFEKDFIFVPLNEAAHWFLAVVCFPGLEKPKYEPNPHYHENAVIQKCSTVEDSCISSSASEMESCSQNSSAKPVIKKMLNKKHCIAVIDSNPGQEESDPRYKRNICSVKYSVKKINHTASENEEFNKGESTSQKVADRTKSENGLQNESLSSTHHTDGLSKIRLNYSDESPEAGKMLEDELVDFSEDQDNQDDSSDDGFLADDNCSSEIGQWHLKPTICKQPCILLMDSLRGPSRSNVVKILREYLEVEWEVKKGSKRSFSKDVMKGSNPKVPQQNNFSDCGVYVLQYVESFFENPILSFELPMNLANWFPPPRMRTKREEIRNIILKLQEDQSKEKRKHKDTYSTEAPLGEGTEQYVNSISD

[3] = molecular target: T4, Sentrin-specific protease 7 (Homo sapiens, UniProt Q9BQF6); assay: inhibition of human SENP7 cleavage activity – biochemical, luminescence, SAR follow-up (AID 504497); assay type: functional
T4 sequence (Q9BQF6 whole entry): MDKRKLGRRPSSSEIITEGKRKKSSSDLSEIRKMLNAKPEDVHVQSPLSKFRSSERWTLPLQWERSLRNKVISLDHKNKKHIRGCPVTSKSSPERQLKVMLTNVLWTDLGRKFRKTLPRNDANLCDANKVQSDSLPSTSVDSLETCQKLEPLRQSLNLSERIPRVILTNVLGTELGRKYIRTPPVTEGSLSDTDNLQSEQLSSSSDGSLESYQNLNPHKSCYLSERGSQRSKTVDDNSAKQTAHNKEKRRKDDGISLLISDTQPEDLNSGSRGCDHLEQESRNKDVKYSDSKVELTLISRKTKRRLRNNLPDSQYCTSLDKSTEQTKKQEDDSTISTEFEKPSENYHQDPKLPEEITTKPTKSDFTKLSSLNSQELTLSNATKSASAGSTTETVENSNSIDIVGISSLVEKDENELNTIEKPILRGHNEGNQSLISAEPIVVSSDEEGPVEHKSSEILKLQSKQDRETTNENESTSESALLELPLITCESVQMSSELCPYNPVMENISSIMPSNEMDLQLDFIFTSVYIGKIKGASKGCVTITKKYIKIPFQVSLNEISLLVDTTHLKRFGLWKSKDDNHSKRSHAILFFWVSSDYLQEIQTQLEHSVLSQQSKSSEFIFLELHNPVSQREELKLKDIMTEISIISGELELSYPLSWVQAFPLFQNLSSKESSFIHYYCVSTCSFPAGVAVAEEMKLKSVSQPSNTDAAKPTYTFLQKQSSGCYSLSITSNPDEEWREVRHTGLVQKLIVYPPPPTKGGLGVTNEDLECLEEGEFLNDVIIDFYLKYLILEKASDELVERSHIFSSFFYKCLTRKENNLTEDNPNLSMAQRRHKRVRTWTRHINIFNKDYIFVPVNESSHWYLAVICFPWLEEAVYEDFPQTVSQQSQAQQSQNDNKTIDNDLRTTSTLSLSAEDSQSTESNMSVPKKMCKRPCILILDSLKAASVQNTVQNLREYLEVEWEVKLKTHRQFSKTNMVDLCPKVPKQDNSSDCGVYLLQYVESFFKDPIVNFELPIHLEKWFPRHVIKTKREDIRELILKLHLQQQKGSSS

[4] = Luminescence Cell-Based Dose Retest to Confirm Inhibitors of Cancer Stem Cells. [Related pubchem assays (depositor defined):AID2717, AID2721]; assay type: functional; settings: Homo sapiens
Insulin-degrading enzyme [5] = molecular target: T5, Insulin-degrading enzyme (Homo sapiens, UniProt P14735); assay: recombinant IDE activation, cell-free – biochemical, fluorescence polarization, counter-screen for IDE activator project, dose response (AID 588681)
T5 sequence (P14735 whole entry): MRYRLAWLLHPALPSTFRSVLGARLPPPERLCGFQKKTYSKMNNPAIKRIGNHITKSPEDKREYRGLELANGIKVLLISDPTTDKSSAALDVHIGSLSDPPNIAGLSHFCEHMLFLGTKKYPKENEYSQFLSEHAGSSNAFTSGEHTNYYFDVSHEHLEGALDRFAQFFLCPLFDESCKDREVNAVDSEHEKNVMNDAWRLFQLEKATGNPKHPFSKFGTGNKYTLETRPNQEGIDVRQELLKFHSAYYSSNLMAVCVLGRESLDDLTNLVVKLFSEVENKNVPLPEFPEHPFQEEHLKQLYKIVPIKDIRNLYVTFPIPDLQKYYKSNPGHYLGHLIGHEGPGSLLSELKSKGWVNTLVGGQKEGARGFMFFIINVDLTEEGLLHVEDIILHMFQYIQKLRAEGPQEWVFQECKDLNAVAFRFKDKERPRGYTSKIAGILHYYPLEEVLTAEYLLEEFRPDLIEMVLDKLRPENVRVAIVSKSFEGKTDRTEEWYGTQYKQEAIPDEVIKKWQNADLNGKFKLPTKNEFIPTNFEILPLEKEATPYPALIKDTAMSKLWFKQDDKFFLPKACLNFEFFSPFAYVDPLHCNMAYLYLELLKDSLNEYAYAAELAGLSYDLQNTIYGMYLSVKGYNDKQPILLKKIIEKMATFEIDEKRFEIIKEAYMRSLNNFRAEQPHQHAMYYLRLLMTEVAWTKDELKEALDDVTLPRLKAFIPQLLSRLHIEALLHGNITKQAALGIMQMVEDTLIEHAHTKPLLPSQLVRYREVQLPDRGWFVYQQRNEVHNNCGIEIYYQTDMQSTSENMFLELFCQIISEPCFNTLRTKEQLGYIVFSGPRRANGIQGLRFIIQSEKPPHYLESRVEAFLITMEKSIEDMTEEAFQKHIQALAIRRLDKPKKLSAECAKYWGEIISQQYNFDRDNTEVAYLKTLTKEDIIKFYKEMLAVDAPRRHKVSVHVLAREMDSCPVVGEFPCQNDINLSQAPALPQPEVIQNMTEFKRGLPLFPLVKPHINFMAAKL

Insulin-degrading enzyme [6] = molecular target: T5, Insulin-degrading enzyme; assay: cellular IDE activation of Abeta substrate cleavage – fluorescence polarization, HEK cells, dose response (AID 588439); assay type: functional, cell-based
HEK293 [7] = assay: membrane integrity loss in HEK cells – cell-based, fluorescence, cytotoxicity control for IDE activator project, dose response (AID 588440); assay type: functional; settings: Homo sapiens;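 note: cytotoxicity by LDH release measuring loss of membrane integrity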
HEK293 [8] = assay: optical interference in Abeta FP readout, dose response, artefact control for IDE activator project, biochemical, fluorescence polarization (AID 588442); assay type: functional, cell-based; settings: Homo sapiens
Mu-type opioid receptor = Mu-type opioid receptor (Homo sapiens, UniProt P35372); assay type: functional, cell-based;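 note: U2OS cells with beta-arrestin recruitment to OPRM1 by beta-gal complementation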
[9] = molecular target: 5-hydroxytryptamine receptor 2A (Mus musculus, UniProt P35363); assay type: functional, cell-based;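 note: CHO-K1 cells with tagged receptor and beta-arrestin; agonist potency measured as compound-induced activation of the receptor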
[10] = molecular target: NAD-dependent protein deacylase sirtuin-5, mitochondrial (Homo sapiens, UniProt Q9NXA8); assay: sirtuin-5 deacylation blockers, concentration series – biochemical, fluorescence imaging, cherry-pick, set 5, dose response (AID 720591);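 note: desuccinylation of succinyl peptide AMC substrate read as fluorescence after trypsin release; potency of inhibitors that lower fluorescence and may act on trypsin instead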
Cytochrome P450 1A2 = molecular target: T6, Cytochrome P450 1A2 (Homo sapiens, UniProt P05177);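 note: PubChem cytochrome P450 panel assay, CYP1A2 panel member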
T6 sequence (P05177 whole entry): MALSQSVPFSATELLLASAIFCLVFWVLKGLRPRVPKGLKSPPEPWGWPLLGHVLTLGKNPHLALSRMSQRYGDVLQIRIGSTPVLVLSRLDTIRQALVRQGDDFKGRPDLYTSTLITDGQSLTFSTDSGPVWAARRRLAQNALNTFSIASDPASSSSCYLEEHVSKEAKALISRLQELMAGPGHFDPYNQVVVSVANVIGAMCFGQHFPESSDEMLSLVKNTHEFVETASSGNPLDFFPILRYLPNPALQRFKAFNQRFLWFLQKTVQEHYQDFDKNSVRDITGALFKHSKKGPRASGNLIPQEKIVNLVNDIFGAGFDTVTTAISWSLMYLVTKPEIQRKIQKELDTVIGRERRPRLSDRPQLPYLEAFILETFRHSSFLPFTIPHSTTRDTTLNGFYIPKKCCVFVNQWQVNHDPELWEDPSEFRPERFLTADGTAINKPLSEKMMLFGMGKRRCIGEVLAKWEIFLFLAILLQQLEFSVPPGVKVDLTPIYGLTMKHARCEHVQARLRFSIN

[11] = molecular target: Voltage-gated inwardly rectifying potassium channel KCNH2 (Homo sapiens, UniProt Q12809); settings: Potency;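 note: confirmatory quantitative high-throughput screen measuring inhibition of hERG channel activity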
Chain of Voltage-gated inwardly rectifying potassium channel KCNH2 (Q12809 whole entry): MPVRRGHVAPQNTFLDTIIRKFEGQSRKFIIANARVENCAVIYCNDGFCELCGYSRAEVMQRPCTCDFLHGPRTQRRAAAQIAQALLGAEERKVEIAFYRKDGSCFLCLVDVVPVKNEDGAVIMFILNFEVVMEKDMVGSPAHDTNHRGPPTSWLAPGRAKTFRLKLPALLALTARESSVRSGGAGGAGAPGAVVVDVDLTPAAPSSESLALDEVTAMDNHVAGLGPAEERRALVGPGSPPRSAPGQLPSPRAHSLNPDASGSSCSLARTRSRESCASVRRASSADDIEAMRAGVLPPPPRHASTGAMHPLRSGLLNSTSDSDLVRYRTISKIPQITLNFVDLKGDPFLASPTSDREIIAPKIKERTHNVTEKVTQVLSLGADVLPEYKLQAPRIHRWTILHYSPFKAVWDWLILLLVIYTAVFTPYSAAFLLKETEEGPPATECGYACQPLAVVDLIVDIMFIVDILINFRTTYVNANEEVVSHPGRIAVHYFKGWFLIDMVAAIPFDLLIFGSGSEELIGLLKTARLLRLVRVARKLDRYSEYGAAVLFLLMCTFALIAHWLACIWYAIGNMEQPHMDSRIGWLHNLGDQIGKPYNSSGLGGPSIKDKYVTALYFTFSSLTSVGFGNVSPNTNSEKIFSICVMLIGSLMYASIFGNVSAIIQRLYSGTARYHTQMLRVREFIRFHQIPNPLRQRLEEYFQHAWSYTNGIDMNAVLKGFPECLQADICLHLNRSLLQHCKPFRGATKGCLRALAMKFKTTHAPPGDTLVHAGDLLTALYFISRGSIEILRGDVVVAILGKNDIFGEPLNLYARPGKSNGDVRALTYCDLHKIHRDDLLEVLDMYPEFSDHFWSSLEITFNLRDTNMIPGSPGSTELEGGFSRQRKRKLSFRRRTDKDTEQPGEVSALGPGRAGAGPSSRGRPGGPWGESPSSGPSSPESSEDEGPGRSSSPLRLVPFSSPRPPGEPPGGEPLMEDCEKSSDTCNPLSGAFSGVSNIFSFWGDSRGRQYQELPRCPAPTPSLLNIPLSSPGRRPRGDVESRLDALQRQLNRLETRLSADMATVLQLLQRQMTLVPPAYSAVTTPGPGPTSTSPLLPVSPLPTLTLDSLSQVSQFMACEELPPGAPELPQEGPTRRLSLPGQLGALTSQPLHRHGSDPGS

Chain of Mu-type opioid receptor (P35372 whole entry): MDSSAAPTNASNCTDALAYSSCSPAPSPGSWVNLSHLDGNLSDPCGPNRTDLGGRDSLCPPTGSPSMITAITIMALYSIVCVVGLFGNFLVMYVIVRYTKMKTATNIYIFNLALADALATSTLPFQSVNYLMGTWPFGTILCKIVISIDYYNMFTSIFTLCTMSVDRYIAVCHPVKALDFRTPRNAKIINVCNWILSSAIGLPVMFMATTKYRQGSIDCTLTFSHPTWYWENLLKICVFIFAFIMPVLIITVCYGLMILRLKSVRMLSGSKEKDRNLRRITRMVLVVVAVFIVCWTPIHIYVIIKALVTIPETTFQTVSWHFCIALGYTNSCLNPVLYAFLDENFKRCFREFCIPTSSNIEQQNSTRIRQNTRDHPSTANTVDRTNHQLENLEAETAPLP
Chain of 5-hydroxytryptamine receptor 2A (P35363 whole entry): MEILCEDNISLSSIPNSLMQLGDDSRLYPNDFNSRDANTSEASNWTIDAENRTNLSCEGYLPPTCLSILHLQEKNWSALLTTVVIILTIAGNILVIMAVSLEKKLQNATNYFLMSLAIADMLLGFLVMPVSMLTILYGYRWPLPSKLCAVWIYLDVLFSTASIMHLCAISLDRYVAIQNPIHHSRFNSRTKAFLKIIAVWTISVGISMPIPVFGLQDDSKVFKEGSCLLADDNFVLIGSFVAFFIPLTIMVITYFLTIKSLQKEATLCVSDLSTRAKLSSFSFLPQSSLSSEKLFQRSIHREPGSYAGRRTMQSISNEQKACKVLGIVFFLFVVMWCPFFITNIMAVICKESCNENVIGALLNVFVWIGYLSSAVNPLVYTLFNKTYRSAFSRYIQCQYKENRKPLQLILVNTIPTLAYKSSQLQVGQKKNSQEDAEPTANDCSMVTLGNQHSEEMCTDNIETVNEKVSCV
Chain of NAD-dependent protein deacylase sirtuin-5, mitochondrial (Q9NXA8 whole entry): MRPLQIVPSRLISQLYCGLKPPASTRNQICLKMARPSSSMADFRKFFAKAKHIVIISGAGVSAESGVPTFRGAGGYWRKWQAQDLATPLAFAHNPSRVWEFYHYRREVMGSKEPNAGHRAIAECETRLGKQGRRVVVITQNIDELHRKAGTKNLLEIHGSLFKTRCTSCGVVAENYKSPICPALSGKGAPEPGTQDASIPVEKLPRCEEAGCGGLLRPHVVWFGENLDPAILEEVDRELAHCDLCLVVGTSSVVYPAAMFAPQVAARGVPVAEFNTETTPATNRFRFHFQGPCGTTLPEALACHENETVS

Structure (SMILES)	IC50 [1]	IC50 (Caspase-3)	IC50 [2]	IC50 [3]	AC50 [4]	EC50 (Insulin-degrading enzyme [5])	EC50 (Insulin-degrading enzyme [6])	IC50 (HEK293 [7])	EC50 (HEK293 [8])	EC50 (Mu-type opioid receptor)	EC50 [9]	AC50 [10]	AC50 (Cytochrome P450 1A2)	AC50 [11]
O=C(NCCc1ccccc1)C(=O)c1c[nH]c2ccccc12	> 99 µM (inactive)	> 99 µM (inactive)	> 99 µM (inactive)	> 99 µM (inactive)										
CCCCCCCC/C=C\CCCCCCCC(=O)NCCc1ccc(O)c(O)c1 [OLEOYL DOPAMINE]					2.59 µM (active)	> 54.7 µM (inactive)	8.94 µM (active)	30.5 µM (inactive)	> 54.7 µM (inactive)	92.3 µM (inactive)	0.957 µM (active)	18.1 µM (active)	20 µM (inconclusive)	35.5 µM (inconclusive)
